Columns and labels:
[1] = Acute toxicity, single dose LD50; type: in vivo, dd mice; conditions: ip, 30 days observation, copper-chelated form unless otherwise stated
Protocol: Graded doses of test compounds were administered intraperitoneally to groups of dd mice. The injection was given one time only or once daily for 9 consecutive days. Death or survival of the animals was recorded for 30 days after the last dose of test compound to calculate the single or multiple median lethal dose (LD50).

Lewis lung carcinoma = experiment: Antitumor activity in mice, Lewis lung carcinoma; type: in vivo, BDF1 mice; conditions: copper-chelated form unless otherwise stated; for Antitumor activity Lewis lung (ED125): ip, once daily 11 days, dose giving T/C survival of 125%; for Antitumor therapeutic index Lewis Lung: single dose LD50/ED125
Source text: (§1) The antitumor activity of the tallysomycin derivatives was examined in four experimental tumor systems in mice. Lymphocytic leukemia P388 and Lewis lung carcinoma were implanted intraperitoneally into BDF1 mice of either sex at an inoculum size of 3×10^5 and 5×10^5 cells per mouse, respectively. Sarcoma 180 ascites tumor was inoculated intraperitoneally into male dd-strain mice with […] per mouse. Melanotic melanoma B16 was implanted subcutaneously into BDF1 mice with 5×10^5 cells per mouse. Twenty-four hours after the implantation of tumor cells, graded doses of test compounds were administered to mice intraperitoneally in an injection volume of 0.2 ml. per 10 grams of body weight. Test compounds were given once daily for 9 days (qd 1→9 schedule) except for the mice inoculated with Lewis lung carcinoma which were treated for 11 days (qd 1→11). Death or survival of the treated and non-treated (control) animals was recorded daily during the observation period of 45 days after the implantation of tumor cells, and the median survival time was calculated for each of the test (T) and control (C) groups. […] The actual dose giving a T/C of 125% was estimated by linear regression analysis and defined as the effective dose 125 or ED125. The effective dose 150 (ED150) was employed for the evaluation of antitumor effect against Sarcoma 180. In the B16 melanoma experiment the tumor size was measured on day 16 after tumor inoculation, and the dose giving 50% inhibition of tumor growth (ID50) was calculated from regression lines.
(§2) The antitumor therapeutic index was calculated for each derivative from the ratio of toxicity and antitumor activity.

[2] = system: lysogenic bacterium E. coli W1709 (λ); experiment: Prophage induction of lysogenic bacterium (ILB activity); type: cell-based; conditions: t/c ratio of plaque counts greater than 3.0
Protocol: The activity of prophage induction of lysogenic bacterium E. coli W1709 (λ) was determined according to the method disclosed by Lein et al. in Nature 196: 783-784 (1962). The plaque count was made on the agar plate containing test compound (t) and control plate (c). A t/c ratio of the plaque counts of greater than 3.0 was defined to be a significant level and lysogenic induction activity (ILB activity) was expressed by the minimum inducible concentration of the test compound.

Melanotic melanoma B16 = experiment: Antitumor activity in mice, melanotic melanoma B16; type: in vivo, BDF1 mice; conditions: copper-chelated form unless otherwise stated; for Antitumor activity B16 (ID50): ip, once daily 9 days, 50% inhibition of tumor growth, day 16, 23040 min; for Antitumor therapeutic index B16: single dose LD50/ID50
Source text: as §1, §2

[3] = system: Mycobacterium smegmatis strain M6-3; experiment: Relative antibacterial potency, paper-disc agar diffusion method; type: cell-based; conditions: relative to tallysomycin A standard=1000 mcg/mg
Protocol: The relative antibacterial potencies (tallysomycin A standard=1000 mcg/mg) of the tallysomycin derivatives were determined by the paper-disc agar diffusion method using Mycobacterium smegmatis strain M6-3 as the assay organism.

Sarcoma 180 = experiment: animal or person; type: in vivo, dd-strain mice; conditions: copper-chelated form unless otherwise stated; for Antitumor activity S180 (ED150): ip, once daily 9 days, effective dose 150, survival; for Antitumor therapeutic index S180: single dose LD50/ED150
Source text: as §1, §2

[4] = system: Lymphocytic leukemia P388; experiment: animal or person; type: in vivo, BDF1 mice; conditions: copper-chelated form unless otherwise stated; for Antitumor activity P388 (ED125): ip, once daily 9 days, dose giving T/C survival of 125%; for Antitumor therapeutic index P388: single dose LD50/ED125
Source text: as §1, §2

Mycobacterium 607 = experiment: MIC, two-fold agar dilution method; type: cell-based; conditions: nutrient agar
Protocol: (§3) The minimum inhibitory concentrations (MIC) of the semibiosynthetic tallysomycin derivatives of the present invention were determined against fungi and gram-positive, gram-negative and acid-fast bacteria by the two-fold agar dilution method. Nutrient agar was used for bacteria and Sabouraud agar for fungi. The results are shown in the table below comparatively with tallysomycin A and B.

[5] = system: Bacillus subtilis PCI 219; experiment: MIC, two-fold agar dilution method; type: cell-based; conditions: nutrient agar
Protocol: as §3

Sarcina lutea PCI1001 = experiment: MIC, two-fold agar dilution method; type: cell-based; conditions: nutrient agar
Protocol: as §3

Escherichia coli NIHJ = experiment: MIC, two-fold agar dilution method; type: cell-based; conditions: nutrient agar
Protocol: as §3

[6] = system: Candida albicans IAM 4888; experiment: MIC, two-fold agar dilution method; type: cell-based; conditions: Sabouraud agar
Protocol: as §3

[7] = system: Staphylococcus aureus Smith; experiment: MIC, two-fold agar dilution method; type: cell-based; conditions: nutrient agar
Protocol: as §3

[8] = system: Aspergillus fumigatus IAM 2593; experiment: MIC, two-fold agar dilution method; type: cell-based; conditions: Sabouraud agar
Protocol: as §3

Proteus mirabilis A9554 = experiment: MIC, two-fold agar dilution method; type: cell-based; conditions: nutrient agar
Protocol: as §3

Structure (SMILES) | LD50 single dose [1] [mg/kg/day] | Antitumor activity Lewis lung (ED125) (Lewis lung carcinoma) [mg/kg/day] | Antitumor therapeutic index Lewis Lung (Lewis lung carcinoma) | ILB activity (minimum inducible concentration) [2] [µg/mL] | Antitumor activity B16 (ID50) (Melanotic melanoma B16) [mg/kg/day] | Antitumor therapeutic index B16 (Melanotic melanoma B16) | Antibacterial potency [3] | Antitumor activity S180 (ED150) (Sarcoma 180) [mg/kg/day] | Antitumor therapeutic index S180 (Sarcoma 180) | Antitumor activity P388 (ED125) [4] [mg/kg/day] | Antitumor therapeutic index P388 [4] | minimum inhibitory concentration (MIC) (Mycobacterium 607) | minimum inhibitory concentration (MIC) [5] | minimum inhibitory concentration (MIC) (Sarcina lutea PCI1001) | minimum inhibitory concentration (MIC) (Escherichia coli NIHJ) | minimum inhibitory concentration (MIC) [6] | minimum inhibitory concentration (MIC) [7] | minimum inhibitory concentration (MIC) [8] | minimum inhibitory concentration (MIC) (Proteus mirabilis A9554)
Cc1c(N)nc(C(CC(N)=O)NCC(N)C(N)=O)nc1C(=O)NC(C(=O)NC(C)C(O)CC(=O)NC(C(=O)NC(OC1OC(C)C(N)C(O)C1O)C(O)c1nc(-c2nc(C(=O)NCCCN)cs2)cs1)C(C)O)C(OC1OC(CO)C(O)C(O)C1OC1OC(CO)C(O)C(OC(N)=O)C1O)c1c[nH]cn1 (centres unmarked) [Tallysomycin S1b] | 19 | 0.12 | 158 | 0.31 | 0.15 | 127 | 1,000 μ/mg | 0.11 | 173 | 2.0 | 10 | < 0.05 | < 0.05 | 1.6 | 0.4 | 12.5 | 1.6 | 1.6 | 1.6
Cc1c(N)nc(C(CC(N)=O)NCC(N)C(N)=O)nc1C(=O)NC(C(=O)NC(C)C(O)CC(=O)NC(C(=O)NC(OC1OC(C)C(N)C(O)C1O)C(O)c1nc(-c2nc(C(=O)NCCCC(N)CC(=O)NCCC[S+](C)C)cs2)cs1)C(C)O)C(OC1OC(CO)C(O)C(O)C1OC1OC(CO)C(O)C(OC(N)=O)C1O)c1c[nH]cn1 (centres unmarked) [Tallysomycin S2a] | 25 | 0.14 | 179 | 0.31 | 0.17 | 147 | 350 μ/mg | 0.07 | 357 | > 3.0 | < 8 | < 0.05 | < 0.05 | 0.8 | < 0.05 | 6.3 | 0.2 | 0.4 | 0.2

— patent US4314028A, “Fermentation process for producing tallysomycin compounds” (priority 1980, dated 1982)
